# Test results from publication PMC4841536, “Characterization of the Anti-HCV Activities of the New Cyclophilin Inhibitor STG-175” (PLoS ONE, 2016).
# “And” between values parts separate entries of the source, which are not always exact repeats. Equal values may be shown once. Read-outs that look alike come from different tables or passages of the source.
# Key:
# [1] = test system: HCV GT1a, GT1b, GT2a, GT3a and GT4a replicons; assay: Panel of HCV replicon cell lines GT1a to 4a (summary statements); type: cell-based; details: Hepatitis C virus, read-out: EC50 range among HCV GTs (GT1a to 4a), multi-genotypic anti-HCV activity
# [2] = test system: subgenomic Con1 (GT1b) replicon in Huh-7 cells; details: 0.25, 0.5 or 1 μM, 7 passages with drug then 3 passages without; HCV RNA by RT-qPCR
# Method: Cells were grown until they reached 90% confluence, trypsinized and re-seeded at the same cell concentration in a new 10-cm dish with the same drug concentration. […] Then drugs were removed to allow viral replication rebound to occur. At each passage, sample of cells were collected, RNA extracted according to the manufacturer's instructions and analyzed by RT-PCR for HCV RNA levels.
# Fig 3 Replicon clearance, replication rebound and resistance analyses. […] Then drugs were removed to allow viral replication rebound to occur. At each passage, samples of cells were collected, RNA extracted and analyzed by RT-PCR for HCV RNA levels. B. Emergence of resistance: Con1 replicon Huh-7 cells were passaged 22 times in the absence or presence of STG-175 or selected DAAs. At each passage, sample of cells were collected, RNA extracted and analyzed by RT-PCR for HCV RNA levels. C. […] Data are expressed as number of HCV RNA copies per cell. […] Data are expressed as mean of relative light units and calculated EC50s are presented. […] E. Degree of resistance of D320E and Y321N Con1 variants: Left panel. Wild-type (WT), D320E and D320/Y321N NS5A Con1 RNA were electroporated into Huh7.5.1 cells and replication monitored over 8 days by quantifying the levels of intracellular HCV RNA. Right panel. Same as just above except that increasing concentrations of STG-175 were added at the time of the electroporation. […]
# [3] = test system: Con1 (GT1b) replicon colonies A, B, C (D320E NS5A); assay: microbe, parasite or virus in culture; type: cell-based, hepatitis C virus; details: for EC50: Hepatitis C virus, GT1B
# Method: (§1) Huh-7 cells expressing subgenomic Con1 (GT1b) replicon were incubated with STG-175 and 100 μg/ml of G418 in 10 cm CellBIND™ plates (Corning). Cells were split every 3 days at 1:6 and G418 concentration was increased sequentially to 200 and 300 μg/mL. […] At this point, medium was changed every 3–4 days until emergence of resistant clones. Clones were individually transferred to 24-well CellBIND using cloning disks. […] Each clone was split in 2 identical plates and was separately maintained under 0.5 or 1.0 μM STG-175 and 100 μg/mL of G418. Once the colonies were established, G418 concentration was increased to 300 μg/mL. […] Briefly, total RNA was prepared using the RNeasy Plus Mini Kit as per manufacturer’s recommendation. Two hundred ng of total RNA was used for cDNA production using primers specific to the NS3-NS5B region or oligo(dT)18 using AccuScript High Fidelity 1st Strand cDNA Synthesis Kit (Stratagene). Amplicons were generated using primers defining the sequence at its 5’ and 3’ ends. The amplicons were gel purified, quantitated and sequenced using primers located internally in NS5A or NS5B reading to the 5’ and 3’ ends. Sequences were assembled and analyzed using the ClustalW algorithm within the MacVector program. The sequencing was conducted twice to ensure the authenticity of the nucleotide substitutions.
# (§2) Fig 3 Replicon clearance, replication rebound and resistance analyses. […] Then drugs were removed to allow viral replication rebound to occur. At each passage, samples of cells were collected, RNA extracted and analyzed by RT-PCR for HCV RNA levels. B. Emergence of resistance: Con1 replicon Huh-7 cells were passaged 22 times in the absence or presence of STG-175 or selected DAAs. At each passage, sample of cells were collected, RNA extracted and analyzed by RT-PCR for HCV RNA levels. C. […] Data are expressed as number of HCV RNA copies per cell. […] Data are expressed as mean of relative light units and calculated EC50s are presented. […] E. Degree of resistance of D320E and Y321N Con1 variants: Left panel. Wild-type (WT), D320E and D320/Y321N NS5A Con1 RNA were electroporated into Huh7.5.1 cells and replication monitored over 8 days by quantifying the levels of intracellular HCV RNA. Right panel. Same as just above except that increasing concentrations of STG-175 were added at the time of the electroporation. […] STG-175 is taken as the substance from the printed x-axis title 'STG-175 in Log nM'.
# (§3) We then sequenced the NS3-NS5B region of the HCV variants (colonies), which emerged after multiple passages under STG-175 selection. […] The five STG-175-resistant variants (5 colonies A to E) were then retested for STG-175 resistance by exposing them to increasing concentrations of STG-175 as we described previously.
# [4] = test system: Con1 (GT1b) replicon colonies D, E (D320E/Y321N NS5A); assay: microbe, parasite or virus in culture; type: cell-based, hepatitis C virus; details: for EC50: Hepatitis C virus, GT1B
# Method: as §1, §2, §3
# [5] = test system: D320E/Y321N NS5A Con1 GT1b replicon; assay: microbe, parasite or virus in culture; type: cell-based, hepatitis C virus; details: for EC50: Hepatitis C virus, GT1B
# Description: The GT1b subgenomic firefly luciferase reporter replicon pFK-I389/NS3–3 was provided by R. Bartenschlager. The GT1B subgenomic NS3, NS5A and NS5B mutants were created via homologous recombination using the In-Fusion HD Cloning kit (Clontech) as we described previously. […] The in vitro transcription of wild-type and mutant Con1 RNA was accomplished using the T7 MEGAscript kit (Ambion) by following the manufacturer’s instructions. In vitro-transcribed RNAs were introduced into Huh7.5.1 cells by electroporation. Trypsinized cells were washed twice and resuspended in phosphate-buffered saline (PBS) (calcium-free and magnesium-free) at 1x 10^7 cells per ml. Ten micrograms of RNA for each mutant was mixed with 0.4 mL of cells in a 4-mm cuvette, and a Bio-Rad Gene Pulser system was used to deliver a single pulse at 0.27 kV, 100 ohms, and 960 μF. Cells were then plated in 12-well dishes. RNA transfection efficiency and HCV subgenomic replication were assessed by reverse transcription-quantitative PCR (RT-qPCR) and presented as genome equivalents (GE) per microgram of total RNA as described previously. We measured by RT-qPCR the replication of wild-type, STG-175-, NS5Ai-, NS3i- and NS5Bi-resistant mutants in the presence of increasing concentrations of SGT-175, daclatasvir, telaprevir, boceprevir and sofosbuvir over a period of 8 days.
# D320E and D320E/Y321N NS5A substitutions were introduced into wild-type Con1 GT1 replicon as we described previously. Con1-NS5A-D320E, and Con1-NS5A-D320E/Y321N were generated using the following forward and reverse phosphorylated (p) primer sets, respectively: (p)[…] and (p)[…], and (p)[…] and (p)[…]. PCR products were circularized with Quick T4 DNA ligase (NEB) for 5 min and transformed into NEB 10-beta competent cells. The NS5A gene was sequenced to confirm the introduced substitutions.
# as §2
# To determine whether the D320E and Y321N substitutions truly render HCV resistant to STG-175, they were introduced into wild-type Con1 replicon as we described previously. Introduction of the substitutions was verified by sequencing.
structure (smiles),measurement,setting,value
CC=CCC(C)C(O)C1C(=O)NC(CC)C(=O)N(C)C(CSCCCCO)C(=O)N(C)C(CC(C)(C)O)C(=O)NC(C(C)C)C(=O)N(C)C(CC(C)C)C(=O)NC(C)C(=O)NC(C)C(=O)N(C)C(CC(C)C)C(=O)N(C)C(CC(C)C)C(=O)N(C)C(C(C)C)C(=O)N1C (stereo not shown) [STG-175],EC50,[1],11.5 to 38.9 nM
same,viral replication rebound after drug removal,[2],no replication rebound was observed
same,"average fold higher resistance than wild-type colonies, colonies A, B and C",[3],10 fold
same,"enhancement of resistance compared to wild-type replicon, colony A",[3],7.2 fold
same,"enhancement of resistance compared to wild-type replicon, colony B",[3],7.8 fold
same,"enhancement of resistance compared to wild-type replicon, colony C",[3],15.1 fold
same,EC50,"[3]; read-out: EC50, colony A (Clone A)",114 nM
same,EC50,"[3]; read-out: EC50, colony B (Clone B)",122 nM
same,EC50,"[3]; read-out: EC50, colony C (Clone C)",238 nM
same,EC50,"[3]; read-out: average EC50, colonies A, B and C",158 nM
same,"average fold higher resistance than wild-type colonies, colonies D and E",[4],33.8 fold
same,"enhancement of resistance compared to wild-type replicon, colony D",[4],48.8 fold
same,"enhancement of resistance compared to wild-type replicon, colony E",[4],18.9 fold
same,EC50,"[4]; read-out: EC50, colony D (Clone D)",766 nM
same,EC50,"[4]; read-out: EC50, colony E (Clone E)",297 nM
same,EC50,"[4]; read-out: average EC50, colonies D and E",531 nM
same,EC50,"[5]; Huh-7.5.1, 144 h, read-out: EC50, D320E/Y321N replicon",75 nM
same,EC50,"[5]; Huh-7.5.1, 192 h, read-out: EC50, D320E/Y321N replicon",102 nM
same,EC50,"[5]; Huh-7.5.1, 192 h, read-out: EC50 D320E/Y321N NS5A",77.9 nM
same,"fold more resistant than wild-type replicon, D320E/Y321N",[5]; day 6,2.1 fold
same,"fold more resistant than wild-type replicon, D320E/Y321N",[5]; day 8,2.9 fold
same,fold resistance conferred by NS5A D320E and Y321N substitutions (summary),[5]; variants emerged under STG-175 pressure,~ 2 fold and 2-3 fold
